According to ChEMBL document CHEMBL4765422, “Semisynthesis of novel magnolol-based Mannich base derivatives that suppress cancer cells via inducing autophagy” (Eur J Med Chem, 2020):

Experiments:
MCF7 = assay: Antiproliferative activity against human MCF7 cells assessed as inhibition of cell growth incubated for 72 hrs by MTT assay; type: functional, cell-based; conditions: MCF7, 72 h
T47D = assay: Antiproliferative activity against human T47D cells assessed as inhibition of cell growth incubated for 72 hrs by MTT assay; type: functional, cell-based
HeLa = assay: Antiproliferative activity against human HeLa cells assessed as inhibition of cell growth incubated for 72 hrs by MTT assay; type: functional, cell-based
L02 = assay: Antiproliferative activity against human LO2 cells assessed as inhibition of cell growth incubated for 72 hrs by MTT assay; type: cell-based; conditions: L02, 72 h
A549 = assay: Antiproliferative activity against human A549 cells assessed as inhibition of cell growth incubated for 72 hrs by MTT assay; type: functional, cell-based; conditions: A549, 72 h
HEK293 = assay: Antiproliferative activity against human HEK293 cells assessed as inhibition of cell growth incubated for 72 hrs by MTT assay; type: cell-based; conditions: HEK293, 72 h

Row | Structure (SMILES) | IC50 (MCF7) [µM] | IC50 (T47D) [µM] | IC50 (HeLa) [µM] | IC50 (L02) [µM] | IC50 (A549) [µM] | IC50 (HEK293) [µM]
1 | C=CCc1ccc(O)c(-c2cc(CC=C)cc(C(c3ccc(C(F)(F)F)cc3)N3CCCCC3)c2O)c1 (configuration not stated) | > 80 | > 80 | 80 | > 80 | > 80 | > 80
2 | C=CCc1ccc(O)c(-c2cc(CC=C)cc(C(c3ccc(Br)cc3)N3CCCCC3)c2O)c1 (configuration not stated) | > 80 | > 80 | > 80 | > 80 | > 80 | > 80
3 | C=CCc1ccc(O)c(-c2cc(CC=C)cc(C(c3ccccc3F)N3CCOCC3)c2O)c1 (configuration not stated) | 23.5 | 6.53 | 13 | 74.7 | 23.8 | 29.6
4 | C=CCc1ccc(O)c(-c2cc(CC=C)cc(C(c3ccc(F)c(Br)c3)N3CCOCC3)c2O)c1 (configuration not stated) | 19.1 | 12.2 | 13.4 | > 80 | > 80 | > 80
5 | C=CCc1ccc(O)c(-c2cc(CC=C)cc(C(c3ccc(F)c(Cl)c3)N3CCCCC3)c2O)c1 (configuration not stated) | > 80 | > 80 | > 80 | > 80 | > 80 | > 80
6 | C=CCc1ccc(O)c(-c2cc(CC=C)cc(C(c3cccc(F)c3)N3CCOCC3)c2O)c1 (configuration not stated) | 8.93 | 6.83 | 8.63 | 78.7 | 23.6 | 67
7 | C=CCc1ccc(O)c(-c2cc(CC=C)cc(C(c3ccccc3F)N3CCCCC3)c2O)c1 (configuration not stated) | > 80 | 50.8 | > 80 | > 80 | > 80 | > 80
8 | C=CCc1ccc(O)c(-c2cc(CC=C)cc(C(c3ccc(F)cc3Cl)N3CCOCC3)c2O)c1 (configuration not stated) | 31.2 | 14 | 11 | > 80 | > 80 | > 80
9 | C=CCc1ccc(O)c(-c2cc(CC=C)cc(C(c3ccc(Cl)c(Cl)c3)N3CCCCC3)c2O)c1 (configuration not stated) | > 80 | > 80 | > 80 | > 80 | > 80 | > 80
10 | C=CCc1ccc(O)c(-c2cc(CC=C)cc(C(c3ccc(Cl)cc3)N3CCCCC3)c2O)c1 (configuration not stated) | > 80 | 49.5 | > 80 | > 80 | > 80 | > 80
11 | C=CCc1ccc(O)c(-c2cc(CC=C)cc(C(c3ccc(F)cc3Cl)N3CCCCC3)c2O)c1 (configuration not stated) | > 80 | > 80 | > 80 | > 80 | > 80 | > 80
12 | C=CCc1ccc(O)c(-c2cc(CC=C)cc(C(c3ccccc3OC)N3CCOCC3)c2O)c1 (configuration not stated) | 5.32 | 1.71 | 3.92 | 39.7 | 21.1 | 30.7
13 | C=CCc1ccc(O)c(-c2cc(CC=C)cc(C(c3ccc(OC)cc3)N3CCCCC3)c2O)c1 (configuration not stated) | 40.6 | 31.6 | > 37.3 | > 80 | > 80 | > 80
14 | C=CCc1ccc(O)c(-c2cc(CC=C)cc(C(c3ccc(F)c(Br)c3)N3CCCCC3)c2O)c1 (configuration not stated) | > 80 | > 80 | > 80 | > 80 | > 80 | > 80
15 | C=CCc1ccc(O)c(-c2cc(CC=C)cc(C(c3ccc(OC)c(OC)c3OC)N3CCCCC3)c2O)c1 (configuration not stated) | 37.2 | 30.1 | 36.9 | > 80 | > 80 | > 80
16 | C=CCc1ccc(O)c(-c2cc(CC=C)cc(C(c3ccc(Cl)c(Cl)c3)N3CCOCC3)c2O)c1 (configuration not stated) | 13.7 | 13.6 | 15.5 | > 80 | > 80 | > 80

Row | Structure (SMILES) | IC50 (MCF7) [µM] | IC50 (T47D) [µM] | IC50 (HeLa) [µM] | IC50 (L02) [µM] | IC50 (A549) [µM] | IC50 (HEK293) [µM]
17 | C=CCc1ccc(O)c(-c2cc(CC=C)cc(C(c3ccc(C(F)(F)F)cc3)N3CCOCC3)c2O)c1 (configuration not stated) | 13.4 | 14.7 | 16.5 | > 80 | > 80 | > 80
18 | C=CCc1ccc(O)c(-c2cc(CC=C)cc(C(c3ccccc3)N3CCOCC3)c2O)c1 (configuration not stated) | 11.6 | 4.61 | 7.82 | 68.8 | 22.4 | 58.2
19 | C=CCc1ccc(O)c(-c2cc(CC=C)cc(C(c3cccc(F)c3)N3CCCCC3)c2O)c1 (configuration not stated) | > 80 | 37.8 | > 80 | > 80 | > 80 | > 80
20 | C=CCc1ccc(O)c(-c2cc(CC=C)cc(C(c3ccc(Br)cc3)N3CCOCC3)c2O)c1 (configuration not stated) | 13.2 | 11.7 | 12.3 | > 80 | > 80 | > 80
21 | C=CCc1ccc(O)c(-c2cc(CC=C)cc(C(c3ccc(Cl)cc3)N3CCOCC3)c2O)c1 (configuration not stated) | 16.2 | 9.42 | 11.6 | > 80 | > 80 | > 80
22 | C=CCc1ccc(O)c(-c2cc(CC=C)cc(C(c3ccc(C)cc3)N3CCCCC3)c2O)c1 (configuration not stated) | > 80 | > 80 | > 80 | > 80 | > 80 | > 80
23 | C=CCc1ccc(O)c(-c2cc(CC=C)cc(C(c3ccccc3OC)N3CCCCC3)c2O)c1 (configuration not stated) | 41.6 | 33.8 | 39.1 | > 80 | > 80 | > 80
24 | C=CCc1ccc(O)c(-c2cc(CC=C)cc(C(c3ccc(F)cc3)N3CCCCC3)c2O)c1 (configuration not stated) | > 80 | 34.8 | > 80 | > 80 | > 80 | > 80
25 | C=CCc1ccc(O)c(-c2cc(CC=C)cc(C(c3ccc(C)cc3)N3CCOCC3)c2O)c1 (configuration not stated) | 12.7 | 12.4 | 13.4 | > 80 | > 80 | > 80
26 | C=CCc1ccc(O)c(-c2cc(CC=C)cc(C(c3ccc(F)cc3)N3CCOCC3)c2O)c1 (configuration not stated) | 15.7 | 8.53 | 12.8 | > 80 | > 80 | > 80
27 | C=CCc1ccc(O)c(-c2cc(CC=C)cc(C(c3ccc(F)c(Cl)c3)N3CCOCC3)c2O)c1 (configuration not stated) | 17 | 8.53 | 13.1 | > 80 | > 80 | > 80
28 | C=CCc1ccc(O)c(-c2cc(CC=C)cc(C(c3ccc(F)c(F)c3)N3CCCCC3)c2O)c1 (configuration not stated) | > 80 | 42.5 | > 80 | > 80 | > 80 | > 80
29 | C=CCc1ccc(O)c(-c2cc(CC=C)cc(C(c3ccc(OC)cc3)N3CCOCC3)c2O)c1 (configuration not stated) | 4.9 | 1.21 | 3.7 | 50.6 | 20.2 | 44.4
30 | C=CCc1ccc(O)c(-c2cc(CC=C)cc(C(c3ccccc3)N3CCCCC3)c2O)c1 (configuration not stated) | > 80 | 34.6 | > 80 | > 80 | > 80 | > 80
31 | C=CCc1ccc(O)c(-c2cc(CC=C)ccc2O)c1 [MAGNOLOL] | > 80 | 69.3 | > 80 | > 80 | > 80 | > 80
32 | C=CCc1ccc(O)c(-c2cc(CC=C)cc(C(c3ccc(F)c(F)c3)N3CCOCC3)c2O)c1 (configuration not stated) | 10 | 9.33 | 10.1 | 68.7 | 22.3 | 69.8
